Laboratory results taken from patent US20240109917A1 (ACTELION PHARMACEUTICALS LTD, priority 2020, published 2024).

How the values were obtained:
[1] = target: VEGFR2, unphosphorylated (Homo sapiens (Human), UniProt P35968); assay: VEGFR ADP GLO Assay; format: biochemical
[2] = target: PDGFRβ (Rattus norvegicus (Rat), UniProt Q05030); assay: PDGFRβ Cellular Assay (PDGFRb P-Y751 HTRF in A10 cells stimulated with PDGF-BB); format: cell-based; conditions: read-out: PDGFR Cellular IC50
Procedure, shortened: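 Phospho-Y751 PDGFRβ was measured by HTRF in lysates of A10 rat cells. Cells received compound for 3 hours before PDGF-BB stimulation (100 ng/mL working stock).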

[3] = target: Tb-labeled inactive PDGFRβ (Homo sapiens (Human), UniProt P09619); assay: PDGFRβ LanthaScreen Assay; format: binding; conditions: read-out: PDGFR Lantha IC50
Chain of Tb-labeled inactive PDGFRβ (P09619 33-1106): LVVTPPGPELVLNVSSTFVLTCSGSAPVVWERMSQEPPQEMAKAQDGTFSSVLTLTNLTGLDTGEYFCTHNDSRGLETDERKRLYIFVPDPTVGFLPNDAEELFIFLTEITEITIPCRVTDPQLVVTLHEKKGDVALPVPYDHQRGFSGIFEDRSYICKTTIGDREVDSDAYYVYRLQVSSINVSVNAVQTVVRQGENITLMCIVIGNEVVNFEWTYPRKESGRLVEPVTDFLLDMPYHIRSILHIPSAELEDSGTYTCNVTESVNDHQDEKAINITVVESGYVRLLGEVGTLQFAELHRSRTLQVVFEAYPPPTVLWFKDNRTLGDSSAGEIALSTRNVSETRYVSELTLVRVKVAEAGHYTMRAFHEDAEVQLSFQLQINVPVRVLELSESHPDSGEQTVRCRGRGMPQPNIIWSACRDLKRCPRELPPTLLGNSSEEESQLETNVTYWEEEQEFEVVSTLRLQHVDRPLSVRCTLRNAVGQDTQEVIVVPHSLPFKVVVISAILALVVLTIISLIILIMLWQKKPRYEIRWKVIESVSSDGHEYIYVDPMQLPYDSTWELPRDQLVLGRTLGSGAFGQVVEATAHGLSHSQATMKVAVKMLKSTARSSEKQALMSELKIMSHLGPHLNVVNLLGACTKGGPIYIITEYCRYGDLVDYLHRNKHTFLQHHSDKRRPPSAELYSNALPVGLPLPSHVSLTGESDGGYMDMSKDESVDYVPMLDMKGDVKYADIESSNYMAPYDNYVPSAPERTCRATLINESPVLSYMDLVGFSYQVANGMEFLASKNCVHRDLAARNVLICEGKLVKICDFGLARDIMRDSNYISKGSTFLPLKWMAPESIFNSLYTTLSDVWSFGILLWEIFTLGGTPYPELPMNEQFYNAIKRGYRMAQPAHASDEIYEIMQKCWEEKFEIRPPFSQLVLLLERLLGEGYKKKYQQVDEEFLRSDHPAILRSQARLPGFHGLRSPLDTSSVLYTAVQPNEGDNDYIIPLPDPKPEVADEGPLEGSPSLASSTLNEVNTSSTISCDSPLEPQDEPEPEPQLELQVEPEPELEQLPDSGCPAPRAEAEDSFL

Chain of PDGFRβ (Q05030 32-1097): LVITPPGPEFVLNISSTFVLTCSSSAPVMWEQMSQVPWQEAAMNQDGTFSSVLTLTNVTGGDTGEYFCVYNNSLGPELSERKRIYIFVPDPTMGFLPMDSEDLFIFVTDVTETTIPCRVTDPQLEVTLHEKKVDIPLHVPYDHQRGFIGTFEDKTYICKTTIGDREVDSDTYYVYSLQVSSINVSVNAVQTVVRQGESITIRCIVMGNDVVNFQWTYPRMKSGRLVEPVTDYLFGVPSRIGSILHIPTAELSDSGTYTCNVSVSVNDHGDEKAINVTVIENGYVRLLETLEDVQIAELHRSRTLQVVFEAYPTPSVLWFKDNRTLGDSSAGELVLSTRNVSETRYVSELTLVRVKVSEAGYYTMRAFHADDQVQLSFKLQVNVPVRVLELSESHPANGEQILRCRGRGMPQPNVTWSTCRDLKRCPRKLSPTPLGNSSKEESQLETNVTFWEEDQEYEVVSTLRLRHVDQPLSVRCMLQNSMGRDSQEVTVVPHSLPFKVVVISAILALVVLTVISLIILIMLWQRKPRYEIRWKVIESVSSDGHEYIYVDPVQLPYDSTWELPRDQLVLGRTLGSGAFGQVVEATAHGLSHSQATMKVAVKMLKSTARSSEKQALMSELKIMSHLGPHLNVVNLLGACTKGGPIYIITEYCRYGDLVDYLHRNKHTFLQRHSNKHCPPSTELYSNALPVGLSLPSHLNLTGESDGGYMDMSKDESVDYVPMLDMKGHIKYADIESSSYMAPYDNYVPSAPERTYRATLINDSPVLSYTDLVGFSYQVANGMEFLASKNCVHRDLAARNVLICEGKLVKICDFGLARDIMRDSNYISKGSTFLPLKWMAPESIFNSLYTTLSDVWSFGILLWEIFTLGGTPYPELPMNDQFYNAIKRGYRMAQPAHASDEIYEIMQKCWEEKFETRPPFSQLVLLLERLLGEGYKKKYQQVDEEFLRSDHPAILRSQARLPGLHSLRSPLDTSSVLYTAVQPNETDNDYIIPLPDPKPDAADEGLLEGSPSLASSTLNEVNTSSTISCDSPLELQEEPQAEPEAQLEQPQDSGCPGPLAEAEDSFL
Chain of VEGFR2, unphosphorylated (P35968 20-1356): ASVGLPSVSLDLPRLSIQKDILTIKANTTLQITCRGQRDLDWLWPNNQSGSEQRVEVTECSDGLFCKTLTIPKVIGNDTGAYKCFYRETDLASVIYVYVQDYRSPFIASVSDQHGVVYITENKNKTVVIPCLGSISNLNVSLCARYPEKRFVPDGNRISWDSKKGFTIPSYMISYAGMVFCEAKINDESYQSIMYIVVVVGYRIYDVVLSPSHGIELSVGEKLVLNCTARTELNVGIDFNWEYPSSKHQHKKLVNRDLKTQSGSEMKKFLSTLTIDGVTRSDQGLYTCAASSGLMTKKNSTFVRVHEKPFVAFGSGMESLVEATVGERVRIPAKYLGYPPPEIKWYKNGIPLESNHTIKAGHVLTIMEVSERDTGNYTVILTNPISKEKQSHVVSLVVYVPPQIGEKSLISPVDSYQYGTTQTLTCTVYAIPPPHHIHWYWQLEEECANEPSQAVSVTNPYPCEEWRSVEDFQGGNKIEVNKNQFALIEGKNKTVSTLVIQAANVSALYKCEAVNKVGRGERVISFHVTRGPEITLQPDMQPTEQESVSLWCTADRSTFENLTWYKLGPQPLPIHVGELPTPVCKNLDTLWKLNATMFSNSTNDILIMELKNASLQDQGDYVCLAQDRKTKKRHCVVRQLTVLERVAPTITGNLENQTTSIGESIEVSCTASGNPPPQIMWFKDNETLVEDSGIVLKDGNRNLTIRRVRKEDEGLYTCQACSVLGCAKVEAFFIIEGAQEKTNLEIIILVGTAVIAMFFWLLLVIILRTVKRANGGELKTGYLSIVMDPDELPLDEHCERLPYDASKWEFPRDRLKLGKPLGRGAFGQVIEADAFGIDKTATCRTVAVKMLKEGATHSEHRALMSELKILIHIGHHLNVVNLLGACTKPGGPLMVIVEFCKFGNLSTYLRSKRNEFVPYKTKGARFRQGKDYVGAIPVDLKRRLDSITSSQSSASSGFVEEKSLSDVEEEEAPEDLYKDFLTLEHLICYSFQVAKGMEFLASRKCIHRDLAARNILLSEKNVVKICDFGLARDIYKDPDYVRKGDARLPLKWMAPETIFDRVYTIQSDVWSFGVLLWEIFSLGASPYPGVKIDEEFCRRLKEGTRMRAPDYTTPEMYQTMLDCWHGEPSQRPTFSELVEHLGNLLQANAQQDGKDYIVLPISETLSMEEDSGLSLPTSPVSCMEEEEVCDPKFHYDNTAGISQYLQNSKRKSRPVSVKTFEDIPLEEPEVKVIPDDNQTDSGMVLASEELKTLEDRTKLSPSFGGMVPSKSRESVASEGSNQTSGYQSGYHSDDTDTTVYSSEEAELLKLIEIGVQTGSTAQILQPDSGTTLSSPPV

Row | Structure (SMILES) | IC50 [1] [nM] | IC50 [2] [nM] | IC50 [3] [nM]
1 | Cc1ncc(NC(=O)CCN2CC3CCC2CC3)cc1NC(=O)c1cnn2cc(-c3cnn(C)c3)sc12 [Example 43, N-(5-(3-(2-azabicyclo[2.2.2]octan-2-yl)propanamido)-2-methylpyridin-3-yl)-2-(1-methyl-1H-pyrazol-4-yl)pyrazolo[5,1-b]thiazole-7-carboxamide] | > 7500 | 7.2 | 3.9
2 | COC1CCN(CC(=O)Nc2cnc(C)c(NC(=O)c3cnn4cc(-c5cnn(C)c5)sc34)c2)CC1 [Example 83, N-(5-(2-(4-methoxypiperidin-1-yl)acetamido)-2-methylpyridin-3-yl)-2-(1-methyl-1H-pyrazol-4-yl)pyrazolo[5,1-b]thiazole-7-carboxamide] | > 7500 | 44.1 | 35
3 | Cc1ncc(NC(=O)CNC2(C)CCC2)cc1NC(=O)c1cnn2cc(-c3cnn4c3OCCC4)sc12 [Example 495, 2-(6,7-dihydro-5H-pyrazolo[5,1-b][1,3]oxazin-3-yl)-N-(2-methyl-5-(2-((1-methylcyclobutyl)amino)acetamido)pyridin-3-yl)pyrazolo[5,1-b]thiazole-7-carboxamide] | > 7500 | 3.8 | 2.5
4 | Cc1ncc(NC(=O)CN2CCN(C)C(=O)C2)cc1NC(=O)c1cnn2cc(-c3cnn(C)c3)sc12 [Example 72, 2-(1-methyl-1H-pyrazol-4-yl)-N-(2-methyl-5-(2-(4-methyl-3-oxopiperazin-1-yl)acetamido)pyridin-3-yl)pyrazolo[5,1-b]thiazole-7-carboxamide] | > 7500 | > 3000 | 112
5 | COCCn1cc(-c2cn3ncc(C(=O)Nc4cc(NC(=O)CCN5CCC6(CCC6)C5)cnc4C)c3s2)cn1 [Example 90, N-(5-(3-(6-azaspiro[3.4]octan-6-yl)propanamido)-2-methylpyridin-3-yl)-2-(1-(2-methoxyethyl)-1H-pyrazol-4-yl)pyrazolo[5,1-b]thiazole-7-carboxamide] | > 2500 | 19.9 | 10.6
6 | Cc1ncc(NC(=O)CN2C[C@@H](C)O[C@@H](C)C2)cc1NC(=O)c1cnn2cc(-c3cnn(C)c3)sc12 [Example 53, N-(5-(2-((2R,6S)-2,6-dimethylmorpholino)acetamido)-2-methylpyridin-3-yl)-2-(1-methyl-1H-pyrazol-4-yl)pyrazolo[5,1-b]thiazole-7-carboxamide] | > 7500 | 4.3 | 2.7
7 | Cc1ncc(NC(=O)CN2CCc3ncsc3C2)cc1NC(=O)c1cnn2cc(-c3cnn(C)c3)sc12 [Example 58, N-(5-(2-(6,7-dihydrothiazolo[5,4-c]pyridin-5 (4H)-yl)acetamido)-2-methylpyridin-3-yl)-2-(1-methyl-1H-pyrazol-4-yl)pyrazolo[5,1-b]thiazole-7-carboxamide] | > 7500 | 52.9 | 12.5
8 | Cc1ncc(NC(=O)CN2CCCCC23CC3)cc1NC(=O)c1cnn2cc(-c3cnn(CCO)c3)sc12 [Example 86, N-(5-(2-(4-azaspiro[2.5]octan-4-yl)acetamido)-2-methylpyridin-3-yl)-2-(1-(2-hydroxyethyl)-1H-pyrazol-4-yl)pyrazolo[5,1-b]thiazole-7-carboxamide] | > 7500 | 18.4 | 7.3
9 | Cc1ncc(NC(=O)CN2Cc3cccnc3C2)cc1NC(=O)c1cnn2cc(-c3cnn(C)c3)sc12 [Example 48, N-(5-(2-(5H-pyrrolo[3,4-b]pyridin-6 (7H)-yl)acetamido)-2-methylpyridin-3-yl)-2-(1-methyl-1H-pyrazol-4-yl)pyrazolo[5,1-b]thiazole-7-carboxamide] | > 7500 | 49.3 | 16.8
10 | Cc1ncc(C(=O)NCCN2CC3CCC2CC3)cc1NC(=O)c1cnn2cc(-c3ccnc(N4CCOCC4)c3)sc12 [Example 484, N-(5-((2-(2-azabicyclo[2.2.2]octan-2-yl)ethyl)carbamoyl)-2-methylpyridin-3-yl)-2-(2-morpholinopyridin-4-yl)pyrazolo[5,1-b]thiazole-7-carboxamide] | > 7500 | 44.1 | 1.4
11 | Cc1ncc(NC(=O)CNCC(C)C)cc1NC(=O)c1cnn2cc(-c3cnn4c3CCC4)sc12 [Example 493, 2-(5,6-dihydro-4H-pyrrolo[1,2-b]pyrazol-3-yl)-N-(5-(2-(isobutylamino)acetamido)-2-methylpyridin-3-yl)pyrazolo[5,1-b]thiazole-7-carboxamide] | > 7500 | 7 | 1.9
12 | Cc1ncc(NC(=O)CN2CCC2(C)C)cc1NC(=O)c1cnn2cc(-c3cnn(C)c3)sc12 [Example 82, N-(5-(2-(2,2-dimethylazetidin-1-yl)acetamido)-2-methylpyridin-3-yl)-2-(1-methyl-1H-pyrazol-4-yl)pyrazolo[5,1-b]thiazole-7-carboxamide] | > 7500 | 12.5 | 24.3
13 | Cc1ncc(NC(=O)OC[C@@H]2CCCN2C)cc1NC(=O)c1cnn2cc(-c3cn(C)nc3C)sc12 [Example 496, (S)-(1-methylpyrrolidin-2-yl)methyl (5-(2-(1,3-dimethyl-1H-pyrazol-4-yl)pyrazolo[5,1-b]thiazole-7-carboxamido)-6-methylpyridin-3-yl)carbamate] | > 7500 | 5.6 | 2.8
14 | Cc1ncc(C(=O)NCCN2CCCC23CCC3)cc1NC(=O)c1cnn2cc(-c3cnn(C)c3)sc12 [Example 3, N-(5-((2-(5-azaspiro[3.4]octan-5-yl)ethyl)carbamoyl)-2-methylpyridin-3-yl)-2-(1-methyl-1H-pyrazol-4-yl)pyrazolo[5,1-b]thiazole-7-carboxamide] | 6980 | 6 | 4
15 | CC[C@@H]1CN(CC(=O)Nc2cnc(C)c(NC(=O)c3cnn4cc(-c5cnn(C)c5)sc34)c2)CCO1 [Example 65, (R)—N-(5-(2-(2-ethylmorpholino)acetamido)-2-methylpyridin-3-yl)-2-(1-methyl-1H-pyrazol-4-yl)pyrazolo[5,1-b]thiazole-7-carboxamide] | > 7500 | 6.8 | 16.5
16 | Cc1ncc(NC(=O)CN2CCC(F)(F)C2)cc1NC(=O)c1cnn2cc(-c3cnn(C)c3)sc12 [Example 73, N-(5-(2-(3,3-difluoropyrrolidin-1-yl)acetamido)-2-methylpyridin-3-yl)-2-(1-methyl-1H-pyrazol-4-yl)pyrazolo[5,1-b]thiazole-7-carboxamide] | > 7500 | 3.2 | 1.7
17 | Cc1ncc(NC(=O)CN2C3CCC2COC3)cc1NC(=O)c1cnn2cc(-c3cnn(C)c3)sc12 [Example 44, N-(5-(2-(3-oxa-8-azabicyclo[3.2.1]octan-8-yl)acetamido)-2-methylpyridin-3-yl)-2-(1-methyl-1H-pyrazol-4-yl)pyrazolo[5,1-b]thiazole-7-carboxamide] | > 7500 | 23.7 | 11.6
18 | Cc1ncc(NC(=O)CN2C[C@H](C)O[C@@H](C)C2)cc1NC(=O)c1cnn2cc(-c3cnn(C)c3)sc12 [Example 52, N-(5-(2-((2S,6S)-2,6-dimethylmorpholino)acetamido)-2-methylpyridin-3-yl)-2-(1-methyl-1H-pyrazol-4-yl)pyrazolo[5,1-b]thiazole-7-carboxamide] | > 7500 | 0.9 | 0.8
19 | COCCn1cc(-c2cn3ncc(C(=O)Nc4cc(NC(=O)CCN5C[C@H]6CC[C@@H]5C6)cnc4C)c3s2)cn1 [Example 94, N-(5-(3-((1R,4S)-2-azabicyclo[2.2.1]heptan-2-yl)propanamido)-2-methylpyridin-3-yl)-2-(1-(2-methoxyethyl)-1H-pyrazol-4-yl)pyrazolo[5,1-b]thiazole-7-carboxamide] | > 7500 | 143 | 14.2
20 | Cc1ncc(NC(=O)CN2CCc3cccnc3C2)cc1NC(=O)c1cnn2cc(-c3cnn(C)c3)sc12 [Example 60, N-(5-(2-(5,6-dihydro-1,7-naphthyridin-7 (8H)-yl)acetamido)-2-methylpyridin-3-yl)-2-(1-methyl-1H-pyrazol-4-yl)pyrazolo[5,1-b]thiazole-7-carboxamide] | > 7500 | 50.4 | 18.3
21 | Cc1ncc(NC(=O)CN2Cc3ccncc3C2)cc1NC(=O)c1cnn2cc(-c3cnn(C)c3)sc12 [Example 77, N-(5-(2-(1H-pyrrolo[3,4-c]pyridin-2 (3H)-yl)acetamido)-2-methylpyridin-3-yl)-2-(1-methyl-1H-pyrazol-4-yl)pyrazolo[5,1-b]thiazole-7-carboxamide] | > 7500 | 78.9 | 15.9
22 | Cc1ncc(NC(=O)CN2CCOCC2(C)C)cc1NC(=O)c1cnn2cc(-c3cnn(C)c3)sc12 [Example 68, N-(5-(2-(3,3-dimethylmorpholino)acetamido)-2-methylpyridin-3-yl)-2-(1-methyl-1H-pyrazol-4-yl)pyrazolo[5,1-b]thiazole-7-carboxamide] | > 7500 | 19.1 | 8.1
23 | Cc1ncc(NC(=O)CN2CCc3scnc3C2)cc1NC(=O)c1cnn2cc(-c3cnn(C)c3)sc12 [Example 61, N-(5-(2-(6,7-dihydrothiazolo[4,5-c]pyridin-5 (4H)-yl)acetamido)-2-methylpyridin-3-yl)-2-(1-methyl-1H-pyrazol-4-yl)pyrazolo[5,1-b]thiazole-7-carboxamide] | > 7500 | 43.6 | 12.3
24 | Cc1ncc(NC(=O)CN2CCn3ccnc3C2)cc1NC(=O)c1cnn2cc(-c3cnn(C)c3)sc12 [Example 75, N-(5-(2-(5,6-dihydroimidazo[1,2-a]pyrazin-7 (8H)-yl)acetamido)-2-methylpyridin-3-yl)-2-(1-methyl-1H-pyrazol-4-yl)pyrazolo[5,1-b]thiazole-7-carboxamide] | > 7500 | 2750 | 47
